Test results taken from US11534457B2, “Use of dextran sulfate” (priority 2017, dated 2022).

System: closed-head diffuse severe TBI (sTBI)
Experiment: sTBI in rats, dose study, HPLC of energy metabolites, antioxidants, oxidative/nitrosative stress biomarkers, NAA (Example 7)
Format: in vivo, Male Wistar rats
Method: Male Wistar rats (n=160) of 300-350 g body weight were used in this study. They were fed with standard laboratory diet and water ad libitum in a controlled environment.
As the accepted anesthetic mixture, animals received 35 mg/kg b.w. ketamine and 0.25 mg/kg body weight midazolam by intramuscular injection. Diffuse sTBI was induced according to the “weight drop” impact acceleration model set up by Marmarou et al. J. Neurosurg. 1994, 80: 291-300. This model causes diffuse axonal injury and it is able to reproduce the physical and mechanical characteristics of the diffuse TBI in humans.
Severe TBI was induced by dropping a 450 g weight from 2 meters height onto the rat head protected by a helmet (metal disk previously fixed on the skull using dental cement) in order to uniformly distribute the mechanical force to the brain. Rats were placed prone on a bed of specific polyurethane foam inserted in a special container; this foam dissipates the major part of the potential energy (deriving from the mechanical forces) and prevents any rebound of the animal after the impact that could produce spinal damages.
After 2 or 7 days from TBI induction, rats were anesthetized again and then immediately sacrificed. These time points are coincident with the worst biochemical derangement (2 days) or, in the case of a mildly injured brain, with a full metabolic recovery (7 days).
The drug treatment consisted in a subcutaneous injection of 0.5 ml of LMW-DS (Tikomed) and administered at 3 different concentrations (1, 5 and 15 mg/kg body weight), according to the schematic protocol described below.
Rats subjected to sTBI and receiving a single administration of LMW-DS after 30 minutes post-TBI, with sacrifice at 2 days post-TBI. Animals were divided in the following subgroups: • 1. 12 animals subjected to sTBI and treated with 1 mg/kg b.w. LMW-DS • 2. 12 animals subjected to sTBI and treated with 5 mg/kg b.w. LMW-DS • 3. 12 animals subjected to sTBI and treated with 15 mg/kg b.w. LMW-DS
Rats subjected to sTBI and receiving a single administration of LMW-DS after 30 minutes post-TBI, with sacrifice at 7 days post-TBI. Animals were divided in the following subgroups: • 1. 12 animals subjected to sTBI and treated with 1 mg/kg b.w. LMW-DS • 2. 12 animals subjected to sTBI and treated with 5 mg/kg b.w. LMW-DS • 3. 12 animals subjected to sTBI and treated with 15 mg/kg b.w. LMW-DS
Rats (n=12) subjected to sTBI and receiving repeated administrations of the maximal dose of LMW-DS (15 mg/kg b.w.) after 30 minutes, 3 days and 5 days post-TBI, with sacrifice at 7 days post-TBI. Four additional rats were used for the histo-morphological studies. Total rats in this group: n=16
To minimize metabolite loss, an in vivo craniectomy was performed in all animals during anesthesia. The rat skull was carefully removed, the brain was exposed, sharply cut along the sagittal fissure and the two hemispheres were separated. The hemispheres dedicated to biochemical analyses were freeze-clamped by aluminum tongues pre-cooled in liquid nitrogen and then immersed in liquid nitrogen. The freeze-clamping procedure was introduced to accelerate freezing of the tissue, thus minimizing potential metabolite loss.
Tissue homogenization for metabolite analyses was effected as described below. After the wet weight (w.w.) determination, the frozen hemispheres were placed into 7 ml of ice-cold, nitrogen-saturated, precipitating solution (1:10 w/v) composed by CH3CN+10 mM KH2PO4, pH 7.40, (3:1; v:v), and the homogenization was performed using an Ultra-Turrax homogenizer set at 24,000 rpm/min (Janke & Kunkel, Staufen, Germany). After centrifugation at 20,690×g, for 10 min at 4° C., the clear supernatants were saved, pellets were supplemented with an aliquot of 10 mM KH2PO4 and homogenized again as described above and saved overnight at −20° C. in order to obtain a complete recovery of aqueous phase from tissue. […]

[1] = 1 mg/kg s.c. single, 30 min post-sTBI, sacrifice 2 days
[2] = 15 mg/kg s.c. single, 30 min post-sTBI, sacrifice 2 days
[3] = 2 days post sTBI, 5 or 15 mg/kg b.w.
[4] = rats, 7 days post-sTBI, single administration of 15 mg/kg b.w.

## low molecular weight dextran sulfate [LMW-DS]
[1]
  CDP choline, brain concentration: 8.23 ± 1.22 nmol/g w.w.
  GDP Glucose, brain concentration: 65.66 ± 41.61 nmol/g w.w.
  UDP-Glc, brain concentration: 45.14 ± 6.68 nmol/g w.w.
  UDP-GlcNac, brain concentration: 96.62 ± 8.80 nmol/g w.w.
1 mg/kg s.c. single, 30 min post-sTBI, sacrifice 2 days, adimensional
  NAD^+/NADH ratio, brain: 33.91 ± 9.32
1 mg/kg s.c. single, 30 min post-sTBI, sacrifice 7 days
  NAD^+/ADH, brain: 33.91 ± 9.32
5 mg/kg s.c. single, 30 min post-sTBI, sacrifice 2 days
  GDP Glucose, brain concentration: 83.81 ± 37.35 nmol/g w.w.
[2]
  CYTIDINE, brain concentration: 11.46 ± 2.07 nmol/g w.w.
  GDP Glucose, brain concentration: 84.24 ± 37.54 nmol/g w.w.
  UDP-Glc, brain concentration: 43.41 ± 06.43 nmol/g w.w.
  β-PSEUDOURIDINE, brain concentration: 7.84 ± 1.57 nmol/g w.w.
2 days post sTBI
  ascorbic acid and reduced glutathione (GSH): significantly ameliorated
  cerebral tissue nitrites and nitrates: evident decrease
  concentrations of UTP and ADP: No effects
  de-phosphorylated purines and pyrimidines: positively affected
2 days post sTBI, 15 mg/kg b.w.
  nicotinic coenzyme pool and NAD/NADH ratio: effective only at the maximal dose tested
[3]
  Acetyl-CoA: partial rescue
  whole brain NAA: significantly higher than values found in sTBI rats
2 days post sTBI, all three dosages (1, 5, 15 mg/kg)
  high energy phosphates (ATP, GTP, and CTP) vs sTBI: Significantly higher values
7 days post impact (untreated sTBI 35%)
  ATP level, lower than the value of controls: 16%
7 days post impact (untreated sTBI 48%)
  NAA concentration, lower than the value of controls: 16%
7 days post sTBI
  de-phosphorylated purines and pyrimidines: positively affected
7 days post sTBI, 5 or 15 mg/kg b.w. (single and repeat)
  CoA-SH and Acetyl-CoA: Remarkable positive effects
7 days post sTBI, any dose tested
  ATP: significant increases
7 days post sTBI, excluding the lowest dose
  concentrations of nicotinic coenzymes: significant improvement
7 days post sTBI, highest single and repeat dose
  ascorbic acid and GSH, with decrease of nitrites and nitrates: particularly beneficial
7 days post sTBI, increasing dose
  ATP/ADP ratio: progressively increased
7 days post sTBI, increasing single doses or repeat maximal dose
  whole brain NAA: dose dependent increase
7 days post sTBI, more evident above 1 mg/kg b.w.
  cerebral energy metabolism: general improvement
7 days post sTBI, single and repeat 15 mg/kg b.w.
  NAD+ level and NAD/NADH ratio: able to normalize NAD+ level and to restore the correct NAD/NADH ratio
rats, 7 days post-sTBI, repeated administration of 15 mg/kg b.w.
  ADENOSINE concentration in deproteinized brain homogenates: 40.84 ± 30.25 nmol/g w.w.
rats, 7 days post-sTBI, single administration of 1 mg/kg b.w.
  GMP concentration in deproteinized brain homogenates: 113.06 ± 53.51 nmol/g w.w.
[4]
  ADENOSINE concentration in deproteinized brain homogenates: 55.95 ± 41.44 nmol/g w.w.
  CDP choline concentration in deproteinized brain homogenates: 10.06 ± 3.23 nmol/g w.w.
